Data: paper PMC9913425, “Pentacyclic Triterpenoids-Based Ionic Compounds: Synthesis, Study of Structure–Antitumor Activity Relationship, Effects on Mitochondria and Activation of Signaling Pathways of Proliferation, Genome Reparation and Early Apoptosis” (Cancers, 2023)

How the values were obtained:
Assay type in all cases: cell-based
Jurkat cells = test: Apoptosis/necrosis induction (Annexin V Alexa Fluor488, 7AAD staining); conditions: compound at IC50 concentration, incubation 2 h
Method in brief: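 Jurkat cells stained with Annexin V Alexa Fluor488, 7AAD and MitoSense Red to assess membrane state, DNA and mitochondrial membrane integrity, distinguishing apoptosis from necrosis; lower MitoSense Red fluorescence marks mitochondrial damage.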

Chk2 = test: Luminex xMAP DNA Damage/Genotoxicity panel, phosphorylated Chk2; conditions: Jurkat cells; 12a 0.006 µM, 13d 0.004 µM per 100,000 cells; 6 and 12 h
Text: [Worded in the source for another target; used here, by the source, with some conditions changed.] (§1) The determination of proteins in a cell by Luminex xMAP technology is characterized by the presence of multiplex multiparametric analysis with the simultaneous use of a multiplex of antibodies with a fluorescent label and magnetic particles, thereby resulting in an increase in the sensitivity of the technique and expansion of the dynamic range, as well as an increase in detection accuracy. Luminex XMAP technology provides a simultaneous analysis of a sufficient number of different proteins in various types of biological fluids (plasma, serum, cerebrospinal fluid, follicular fluid, tissue lysate, etc.) and in cell supernatants. Consequently, multiplexing saves time/costs and ensures the same conditions for the measurements, which is essential for significance and statistical processing.
Magnetic microspheres (stained inside with two fluorescent dyes) in combination with monoclonal antibodies against the analyzed analytes (the main intracellular kinases in this case) are incubated with the samples and standards; then, the samples/standards are incubated with biotinylated monoclonal antibodies against the analyzed analytes and, finally, with a solution of streptavidin–phycoerythrin. The Luminex technology identifies the different proteins present in each well and converts the mean fluorescence intensity (MFI) of each measured cytokine to pg/mL using software and standard curves. This approach is successfully applied in fundamental and clinical research. In this work, we analyzed various protein analytes that make up the phosphorylated and non-phosphorylated fractions of the main kinases in the signaling pathways: CREB, JNK, NFkB, p38, ERK1/2, Akt, p70S6K, STAT3, STAT5 proteins in six samples of lysates of Jurkat tumor cells by Luminex technology (MILLIPLEX® MAP 9-Plex Multi-Pathway 9-plex Magnetic Bead Kit).

Jurkat = test: In vitro cytotoxicity, IC50 by flow cytometry (Guava ViaCount); conditions: Jurkat cells
Method in brief: (§2)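 Cells were grown at 37 °C under 5% CO2; the Jurkat, K562 and HL60 lines were kept in RPMI 1640 with 10% FBS, […] and penicillin–streptomycin. Cells were seeded at 5 × 10^4 per well and incubated overnight. IC50 was derived from Guava ViaCount flow cytometry.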

K562 = test: as above
Method in brief: as §2

U937 = test: as above
Method in brief: (§3)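 Suspension lines kept in RPMI 1640 with 10% FBS and […] at 37 °C, 5% CO2; cells seeded at 5 × 10^4 per well and incubated overnight before compound exposure. Viability counted by flow cytometry with Guava ViaCount staining to derive IC50.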

HEK293 = test: as above; conditions: conditionally normal
Method in brief: as §3

STAT3 = test: Luminex xMAP Multi-Pathway 9-plex, tyrosine-phosphorylated STAT3; conditions: Jurkat cells; 12a 0.006 µM, 13d 0.004 µM per 100,000 cells; up to 12 h; compared with STAT5 (3-fold)
Text: as §1, with “Consequently, multiplexing saves time/costs and ensures the same conditions for the measurements, which is essential for significance and statistical processing.” left out
Magnetic microspheres (stained inside with two fluorescent dyes) in combination with monoclonal antibodies against the analyzed analytes (the main intracellular kinases in this case) are incubated with the samples and standards; then, the samples/standards are incubated with biotinylated monoclonal antibodies against the analyzed analytes and, finally, with a solution of streptavidin–phycoerythrin. The Luminex technology identifies the different proteins present in each well and converts the mean fluorescence intensity (MFI) of each measured cytokine to pg/mL using software and standard curves. […]
The specific role of STAT3 and STAT5 was assessed by changes in the content of tyrosine-phosphorylated forms of these proteins (STAT3(ph) and STAT5(ph)). […]

p53 = test: Luminex xMAP panel, p53 protein content; conditions: Jurkat cells; 12a 0.006 µM, 13d 0.004 µM per 100,000 cells; first 6 h

SMILES	Apoptosis (%) Early (Jurkat cells) [%]	Apoptosis (%) Late (Jurkat cells) [%]	Apoptosis (%) Necrosis (Jurkat cells) [%]	percentage of cells in the apoptotic state (Jurkat cells) [%]	content of phosphorylated checkpoint kinase Chk2 (Chk2)	IC50 (Jurkat; Homo sapiens, Jurkat) [nM]	IC50 (K562; Homo sapiens, K562, K562 cells) [nM]	IC50 (U937; Homo sapiens, U-937, U937 cells) [nM]	IC50 (HEK293; Homo sapiens, HEK293, HEK293 cells) [nM]	increase in the content of STAT3 (STAT3)	expression of p53 protein (p53)	IC50 (Jurkat) [nM]	IC50 (K562; K562 cells) [nM]	IC50 (U937; U937 cells) [nM]	IC50 (HEK293; HEK293 cells) [nM]
CC1(C)CC[C@]2(C(=O)OCCCCCC[n+]3ccccc3)CC[C@]3(C)C(=CCC4[C@@]5(C)CC[C@H](O)C(C)(C)C5CC[C@]43C)C2C1 (stereo partly drawn) [12a, 1-(6-{[(3β)-3-Hydroxyolean-12-en-28-oyl]oxy}hexyl)-pyridinium bromide]	0	22.63	65.18	87.81	significantly decreases	6 ± 1	7 ± 1	6 ± 1	44 ± 4	to a lesser extent	significantly increased	–	–	–	–
CC(=O)[O-].C[n+]1ccn(CCCCCCOC(=O)[C@]23CCC(C)(C)CC2C2=CCC4[C@@]5(C)CC[C@H](O)C(C)(C)C5CC[C@@]4(C)[C@]2(C)CC3)c1 (stereo partly drawn) [13d, 1-(6-{[(3β)-3-Hydroxyolean-12-en-28-oyl]oxy}hexyl)-3-methylimidazolium Acetate]	11.00	–	85.0	98.32	significantly decreases	–	–	–	–	to a lesser extent	significantly increased	4 ± 1	6 ± 1	5 ± 1	29 ± 2
